According to PMC7746380, “In vitro and in vivo efficacy of the novel oral proteasome inhibitor NNU546 in multiple myeloma” (Aging (Albany NY), 2020):

Columns and labels:
[1] = Microsomal stability, mouse liver microsomes; type: in vitro ADME; conditions: pooled mouse liver microsomes, 1 μM compound, 37 °C
Protocol: (§1) Microsomal stabilities were determined by incubating 1 μM of the test compounds with rat, mouse, dog, monkey or human liver microsomes (Xenotech, USA) for different durations at 37 °C. Clearance and T1/2 were calculated by measuring the remaining percentage of test compounds at different time-points. Liquid chromatography/mass spectrometry (Xevo Quadrupole Time-of-Flight Mass Spectrometer; Waters) and an ACQUITY High-Performance Liquid Chromatography (HPLC) system ([…]) were used to determine the relative peak area for the parent compounds.
(§2) Antipyrine and testosterone (5 μM each)
(§3) were used as positive and negative controls, respectively. Abbreviations: t = time; CLint, intrinsic clearance. […]

[2] = test system: NF-κB/luciferase 293T cells; assay: NF-κB inhibition assay (luciferase reporter, TNF-α stimulated); type: cell-based; conditions: Homo sapiens, HEK-293T; 6 h pre-treatment, then 10 ng/ml TNF-α for 18 h; read from Figure 3K
Protocol: To determine the inhibition of NF-κB signaling, the transfected NF-κB/luciferase 293T cells were pre-treated with various concentrations of NNU219 or bortezomib for 6 h and then stimulated with 10 ng/ml of tumor necrosis factor-α (TNF-α) for 18 h, followed by measurement of luciferase activity by using the Dual-Luciferase® Reporter Assay System (Promega Corp., Madison, WI, USA) as previously described.

[3] = Microsomal stability, rat liver microsomes; type: in vitro ADME; conditions: pooled rat liver microsomes, 1 μM compound, 37 °C
Protocol: as §1, §2, §3

[4] = test system: ARH77 xenograft; assay: ARH77 MM xenograft model; type: in vivo, mice; conditions: BIW, 3 weeks
Protocol: For the ARH77 xenograft model, female BNX mice (n=5; 5-7 weeks old; Shanghai Sippr-BK laboratory Animal Co. Ltd.) were implanted with 5×10^6 of ARH77 cells in Matrigel (1:1) and randomized into treatment and vehicle groups when the mean tumor volume (MTV) reached 100-150 mm^3. For the intravenous treatment groups, mice were treated with bortezomib (1 mg/kg, BIW) or NNU219 (0.4 mg/kg, BIW), respectively. For i.g. administration, mice were treated with ixazomib (5 mg/kg, BIW) and NNU546 (1 mg/kg, QD) or NNU546 (2 mg/kg, QOD). Tumors were measured twice a week and the tumor volume was calculated using the following formula: 0.5 × (length × width^2).

[5] = Microsomal stability, human liver microsomes; type: in vitro ADME; conditions: pooled human liver microsomes, 1 μM compound, 37 °C
Protocol: as §1, §2, §3

[6] = test system: 20S proteasome (CT-L, C-L, T-L activities) in whole blood; assay: In vivo proteasome activity in whole blood; design: species or system mice; conditions: 48 h after dose
Protocol: For the cellular proteasome activity assays, cells were treated with concentrations of compounds (0-10 μM) for 1 h at 37 °C and the CT-L, C-L and T-L activities of proteasome were evaluated by using the Proteasome-Glo assay reagents (Promega Corp. Madison, WI, USA) according to the manufacturer's protocol. For determination of recovery of cellular proteasome activity, cells were treated with the compounds for 1 h and then washed thrice in PBS to remove the compounds. Cells were incubated in fresh medium for an additional 4, 24 or 72 h at 37 °C. […] Blood samples were collected after 1 h, and whole blood cells were then analyzed for proteasome activity as previously described.
For the pharmacodynamic study, female BNX mice (n=6; 5-7 weeks old; Shanghai Sippr-BK laboratory Animal Co. Ltd.) were given one single dose of NNU219 (0.4 mg/kg) and bortezomib (1 mg/kg) by i.v. administrations or NNU546 (2-15 mg/kg) by oral gavage. […] Tissue homogenates and cell lysates were removed by centrifugation and supernatants were collected for protein quantitation and proteasome activity determination using the Proteasome-Glo assay reagents as described above.

[7] = test system: patient-derived primary human MM xenografts; assay: Patient-derived MM xenograft (PDX) model in NCG mice; type: in vivo; conditions: 5 mg/kg i.g., BIW, 3 weeks
Text: The PDX model was generated from biopsies of patients with MM brain manifestation at the Department of Hematology, the 1st Affiliated Hospital of Nanjing Medical University. Freshly excised tumor tissue specimens were washed and cut into 2.5×2.5×2.5 mm^3 pieces in antibiotic-containing L-15 medium. Under anesthesia with pentobarbital, 4-6 weeks-old male NCG mice (n=6; Model Animal Research Center of Nanjing University) were subcutaneously transplanted with the tumor pieces. Tumors were harvested when their size reached 500 mm^3 (Px1 xenografts). Tumor tissue from Px1 xenograft mice was divided into small pieces and then implanted again subcutaneously as described above to obtain Px2 xenografts. This process was once more and the experiments were performed on Px3 xenograft mice, which were randomized into treatment groups when tumor volume reached 100-150 mm^3. Mice were orally administered with ixazomib (5 mg/kg, i.g., BIW) or NNU546 (1 mg/kg, QD). Tumors were measured twice a week.

CLint scaled at 1 μM [1] [mL/min/kg]	half-life at 1 μM [1] [min]	CLint scaled at 1 μM [3] [mL/min/kg]	half-life at 1 μM [3] [min]	CLint scaled at 1 μM [5] [mL/min/kg]	half-life at 1 μM [5] [min]	SMILES	IC50 [2] [nM]	reduction of tumor volume ([4]; 1 mg/kg i.v.) [%]	proteasome inhibition in whole blood at 48 h [6]	reduction of tumor progression ([4]; 5 mg/kg i.g.) [%]	reduction of tumor volume [7] [%]
509	10.7	200	12.4	58.3	21.4	CC(C)C[C@H](NC(=O)[C@H](Cc1ccccc1)NC(=O)c1cnccn1)B(O)O [bortezomib]	18.8	24.9	only minimal or no inhibition	–	–
–	–	–	–	–	–	CC(C)C[C@H](NC(=O)CNC(=O)c1cc(Cl)ccc1Cl)B(O)O [ixazomib]	–	–	–	36.3	30.5
